The record followed here is US5206236A, “Method for the treatment of malaria” (priority 1991, dated 1993).

Structures are written as SMILES. “Also recorded” adds a separate entry of the source. Where two headings read alike, the source gives them in different places.

Common to all, as to format: cell-based
In assay [1] the test system is Plasmodium falciparum strain D6 (mefloquine-resistant, chloroquine-sensitive). As to the kind of experiment: In vitro drug sensitivity assay (3H-hypoxanthine incorporation), strain D6. The following applies: for IC50: Plasmodium falciparum. The method, then:
(§1) Plasmodium falciparum strains W2 (chloroquine-resistant, mefloquine-sensitive) and D6 (mefloquine-resistant, chloroquine-sensitive)were cultured in a medium consisting of RPMI-1640, 25 mM HEPES, 25 mM NaHCO3, and 10% (v/v) fresh frozen human plasma. Into the wells of a 96 well microtiter plate there was placed 200 ul per well of a 1.5% erythrocyte suspension containing 0.2% to 0.4% parasitized erythrocytes containing serial dilutions of the test compounds. The plate was then placed in an anaerobic chamber, flushed with nitrogen gas and incubated at 37° C. After 24 hours, 25 ul per well of G-^3 H-hypoxanthine (1 mCi/ml) were added and the plate reincubated as above. After 42 hours, the cells were harvested with a multimash-type cell harvester onto glass microfiber paper. A scintillation counter was used to determine the incorporated of ^3 H-hypoxanthine. The activities of the compounds tested were determined by comparing the incorporation of ^3 H-hypoxanthine to drug concentration using computerized non-linear regression analysis. [Antimicrob. Agents Chemother. 16:710, 1979; Am.J.Trop.Med.Hygiene 34:209, 1985].

The subject of assay [2] is Plasmodium falciparum strain W2 (chloroquine-resistant, mefloquine-sensitive). As to the kind of experiment: In vitro drug sensitivity assay (3H-hypoxanthine incorporation), strain W2. The following applies: for IC50: Plasmodium falciparum. The method, then:
as §1

In assay [3] the test system is Plasmodium falciparum strains W2 and D6. As to the kind of experiment: In vitro drug sensitivity assay, overall efficacy over both strains. The following applies: qualitative. The procedure:
as §1

Where [4] appears, read: strain D6, 3H-hypoxanthine incorporation, 42 hours, 37° C, read-out: IC50 (uM), D6.
Where [5] appears, read: strain W2, 3H-hypoxanthine incorporation, 42 hours, 37° C, read-out: IC50 (uM), W2.

Broadly, the IC50 is the midpoint of a concentration-inhibition curve.

Consider `N=C(N)c1ccc(OCCCCCOc2ccc(C(=N)N)cc2Cl)c(Cl)c1` [Example 10], for which the IC50 was 0.107 µM in assay [1] (setting [4]) and 0.165 µM in assay [2] (setting [5]).
Take `c1cc(C2=NCCN2)ccc1OCCCOc1ccc(C2=NCCN2)cc1` [Example 18]: the concentration for half-maximal inhibition (IC50) in assay [1] (setting [4]) came to 0.025 µM; in assay [2] (setting [5]), 0.06 µM. Further, the “efficacy against malaria (in words)” value in assay [3] was “Very close in therapeutic efficacy against malaria”.
With `N=C(N)c1ccc(OCCCCCOc2ccc(C(=N)N)cc2)cc1` [Example 4, reference compound], the IC50 stood at 0.038 µM in assay [1] (D6, read-out: IC50 (uM), D6) and 0.083 µM in assay [2] (W2, read-out: IC50 (uM), W2). Further, the “efficacy against malaria (in words)” value in assay [3] is given as “moderately effective against malaria”.
Regarding `COc1cc(C2=NCCN2)ccc1OCCCOc1ccc(C2=NCCN2)cc1OC` [Example 17], the IC50 in assay [1] (setting [4]) was 0.1 µM; in assay [2] (setting [5]), 0.06 µM.
The like results for `N=C(N)c1cccc(OCCCCCOc2cccc(C(=N)N)c2)c1` [Example 13] were, in that order, 0.069 µM and 0.08 µM.
The corresponding values for `N=C(N)c1cccc(OCCCOc2cccc(C(=N)N)c2)c1` [Example 11] are 0.194 µM and 0.156 µM.
The corresponding values for `COc1cc(C(=N)N)ccc1OCCCOc1ccc(C(=N)N)cc1OC` [Example 1] are 0.077 µM and 0.065 µM.
Regarding `N=C(N)c1ccc(OCCCCCOc2ccc(C(=N)N)cc2[N+](=O)[O-])c([N+](=O)[O-])c1` [Example 5], the IC50 in assay [1] (D6, read-out: IC50 (uM), D6) amounted to 0.071 µM; in assay [2] (W2, read-out: IC50 (uM), W2), 0.069 µM.
As for `c1cc(C2=NCCN2)ccc1OCCCCCOc1ccc(C2=NCCN2)cc1` [Example 15], the IC50 in assay [1] (setting [4]) is 0.023 µM; in assay [2] (setting [5]), 0.104 µM. Moreover, the “efficacy against malaria (in words)” value in assay [3] is “Very close in therapeutic efficacy against malaria”.
The corresponding values for `N=C(N)c1cccc(OCCCCOc2cccc(C(=N)N)c2)c1` [Example 12] are 0.046 µM, 0.043 µM and “Very close in therapeutic efficacy against malaria”.
For `N=C(N)c1ccc(OCCCCCOc2ccc(C(=N)N)cc2N)c(N)c1` [Example 6], the IC50 was 0.046 µM in assay [1] (setting [4]) and 0.076 µM in assay [2] (setting [5]).
Turning to `COc1cc(C(=N)N)ccc1OCCCCCOc1ccc(C(=N)N)cc1OC` [Example 7], the results for the IC50 in assay [1] (setting [4]) and in assay [2] (setting [5]) were 0.106 µM and 0.066 µM, respectively.
The corresponding values for `N=C(N)c1cccc(OCCCCCCOc2cccc(C(=N)N)c2)c1` [Example 14] are 0.132 µM and 0.125 µM.
As to `N=C(N)c1ccc(NCCCCCNc2ccc(C(=N)N)cc2)cc1` [Example 8], the 50% inhibitory concentration (IC50) in assay [1] (setting [4]) was less than 0.02 µM; in assay [2] (setting [5]), 0.022 µM. Besides, the “efficacy against the mefloquine-resistant strain (D6) (in words)” value in assay [1] (qualitative) is listed as “most effective compound”. The “efficacy against malaria (in words)” value in assay [3] is “most efficacious product identified to date; also recorded: best compound for treating both strains of Plasmodium falciparum”. In assay [2] (qualitative), the “efficacy against the chloroquine-resistant strain (W2) (in words)” value is “most effective compound”.
`N=C(N)c1ccc(OCCCCCCOc2ccc(C(=N)N)cc2)cc1` [Example 9]: the IC50 in assay [1] (setting [4]) was 0.118 µM; in assay [2] (setting [5]) it was 0.345 µM.
On to `N=C(N)c1ccc(OCCCCOc2ccc(C(=N)N)cc2)cc1` [Example 3], for which the figures for the IC50 in assay [1] (setting [4]) and in assay [2] (setting [5]) were 0.057 µM and 0.12 µM, respectively.
The like results for `CN1CCN=C1c1ccc(OCCCCCOc2ccc(C3=NCCN3C)cc2)cc1` [Example 16] were, in that order, 0.089 µM and 1.82 µM.
The corresponding values for `N=C(N)c1ccc(NCCCCNc2ccc(C(=N)N)cc2)cc1` [Example 2] are 0.025 µM and 0.057 µM.
